Target: T1, HIF-PH2 (EGLN1) (Homo sapiens, UniProt Q9GZT9)
T1 construct: made in house; host or cells: insect Hi5 cells
Assay: HIF-PH assay (14CO2 capture, peptide-dependent turnover)
Assay type: biochemical
Settings: for inhibition at 50 µM: compound concentration 50 μM; for inhibition at 7.4 µM: compound concentration 7.4 μM; for inhibition at 200 µM: compound concentration 200 μM; for inhibition at 12.5 µM: compound concentration 12.5 μM; for inhibition at 67 µM: compound concentration 67 μM
Excerpt: Ketoglutaric acid α-[1-^14C]-sodium salt, alpha-ketoglutaric acid sodium salt, and HPLC purified peptide may be obtained from commercial sources, e.g., Perkin-Elmer (Wellesley Mass.), Sigma-Aldrich, and SynPep Corp. (Dublin Calif.), respectively. Peptides for use in the assay may be fragments of HIFα as described above or as disclosed in International Publication WO 2005/118836, incorporated by reference herein. For example, a HIF peptide for use in the HIF-PH assay is [methoxycoumarin]-DLDLEALAPYIPADDDFQL-amide (SEQ ID NO:2). HIF-PH, e.g., HIF-PH2 (EGLN1), can be expressed in, e.g., insect Hi5 cells, and partially purified, e.g., through a SP ion exchange chromatography column. Enzyme activity is determined by capturing ^14CO2 using an assay described by Kivirikko and Myllyla (1982, Methods Enzymol. 82:245-304). Assay reactions contain 50 mM HEPES (pH 7.4), 100 μM α-ketoglutaric acid sodium salt, 0.30 μCi/mL ketoglutaric acid α-[1-^14C]-sodium salt, 40 μM FeSO4, 1 mM ascorbate, 1541.8 units/mL Catalase, with or without 50 μM peptide substrate and various concentrations of compound of the invention. Reactions are initiated by addition of HIF-PH enzyme.
The peptide-dependent percent turnover is calculated by subtracting percent turnover in the absence of peptide from percent turnover in the presence of substrate peptide. Percent inhibition and IC50 are calculated using peptide-dependent percent turnover at given inhibitor concentrations. Calculation of IC50 values for each inhibitor is conducted using GraFit software (Erithacus Software Ltd., Surrey UK).
Representative compounds of the invention were analyzed using the HIF-PH assay described above. Table 1 presents enzyme inhibition data for exemplary compounds against HIF-PH2, a representative HIF prolyl hydroxylase. By inhibiting HIF prolyl hydroxylase, compounds of the invention stabilize HIFα, which then combines with HIFβ to form an active transcription factor that increases expression of various genes involved in numerous beneficial cellular processes.

T1 sequence (Q9GZT9 whole entry): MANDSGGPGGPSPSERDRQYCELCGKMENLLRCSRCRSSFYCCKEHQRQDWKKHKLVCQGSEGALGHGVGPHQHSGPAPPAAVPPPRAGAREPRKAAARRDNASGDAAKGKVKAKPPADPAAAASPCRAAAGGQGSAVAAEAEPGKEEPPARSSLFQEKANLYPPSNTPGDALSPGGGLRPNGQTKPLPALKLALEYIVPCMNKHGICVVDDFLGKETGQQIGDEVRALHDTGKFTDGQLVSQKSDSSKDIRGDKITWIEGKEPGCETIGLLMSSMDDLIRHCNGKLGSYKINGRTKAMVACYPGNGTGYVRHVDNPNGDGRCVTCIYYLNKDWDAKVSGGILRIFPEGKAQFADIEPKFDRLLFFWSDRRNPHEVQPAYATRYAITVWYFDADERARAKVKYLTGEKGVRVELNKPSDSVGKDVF

Row | SMILES | inhibition at 50 µM [%] | further results
1 | O=C(O)CNC(=O)c1c(O)c2cc(Cl)cc(-c3ccccc3)c2sc1=O [Example 44, [(6-Chloro-4-hydroxy-2-oxo-8-phenyl-2H-thiochromene-3-carbonyl)-amino]-acetic acid] | 100 | 
2 | O=C(O)CNC(=O)c1c(O)c2cc(Cl)cc(C#Cc3ccccc3)c2sc1=O [Example 56, [(6-Chloro-4-hydroxy-2-oxo-8-phenylethynyl-2H-thiochromene-3-carbonyl)-amino]-acetic acid] |  | inhibition at 7.4 µM: 99.7%
3 | O=C(O)CNC(=O)c1c(O)c2cc(F)ccc2sc1=O [Example 4, [(6-Fluoro-4-hydroxy-2-oxo-2H-thiochromene-3-carbonyl)-amino]-acetic acid] |  | inhibition at 200 µM: 100%
4 | O=C(O)CNC(=O)c1c(O)c2cccc(-c3cccnc3)c2sc1=O [Example 50, [(4-Hydroxy-2-oxo-8-pyridin-3-yl-2H-thiochromene-3-carbonyl)-amino]-acetic acid] | 98.8 | 
5 | Cn1nc(C(F)(F)F)cc1-c1ccc2c(O)c(C(=O)NCC(=O)O)c(=O)sc2c1 [Example 54, {[4-Hydroxy-7-(2-methyl-5-trifluoromethyl-2H-pyrazol-3-yl)-2-oxo-2H-thiochromene-3-carbonyl]-amino}-acetic acid] | 98.6 | 
6 | COc1ccc(-c2ccc3c(O)c(C(=O)NCC(=O)O)c(=O)sc3c2)cc1 [Example 7, {[4-Hydroxy-7-(4-methoxy-phenyl)-2-oxo-2H-thiochromene-3-carbonyl]-amino}-acetic acid] |  | inhibition at 12.5 µM: 98.7%
7 | Cn1nc(C(F)(F)F)cc1-c1cccc2c(O)c(C(=O)NCC(=O)O)c(=O)sc12 [Example 49, {[4-Hydroxy-8-(2-methyl-5-trifluoromethyl-2H-pyrazol-3-yl)-2-oxo-2H-thiochromene-3-carbonyl]-amino}-acetic acid] | 100 | 
8 | O=C(O)CNC(=O)c1c(O)c2cccc(Cc3ccccc3)c2sc1=O [Example 47, [(8-Benzyl-4-hydroxy-2-oxo-2H-thiochromene-3-carbonyl)-amino]-acetic acid] | 100 | 
9 | O=C(O)CNC(=O)c1c(O)c2cccc(-c3cc(C(F)(F)F)cc(C(F)(F)F)c3)c2sc1=O [Example 48, {[8-(3,5-Bis-trifluoromethyl-phenyl)-4-hydroxy-2-oxo-2H-thiochromene-3-carbonyl]-amino}-acetic acid] | 100 | 
10 | O=C(O)CNC(=O)c1c(O)c2cc(Cl)cc(Cc3ccccc3)c2sc1=O [Example 42, [(8-Benzyl-6-chloro-4-hydroxy-2-oxo-2H-thiochromene-3-carbonyl)-amino]-acetic acid] | 100 | 
11 | O=C(O)CNC(=O)c1c(O)c2ccc(F)cc2sc1=O [Example 21, [(7-Fluoro-4-hydroxy-2-oxo-2H-thiochromene-3-carbonyl)-amino]-acetic acid] |  | inhibition at 12.5 µM: 91.1%
12 | C[C@H](NC(=O)c1c(O)c2ccccc2sc1=O)C(=O)O [Example 57, 2-(S)-[(4-Hydroxy-2-oxo-2H-thiochromene-3-carbonyl)-amino]-propionic acid] |  | inhibition at 7.4 µM: 98.4%
13 | O=C(O)CNC(=O)c1c(O)c2cc(Cl)ccc2sc1=O [Example 58, [(6-Chloro-4-hydroxy-2-oxo-2H-thiochromene-3-carbonyl)-amino]-acetic acid] |  | inhibition at 7.4 µM: 96.8%
14 | O=C(O)CNC(=O)c1c(O)c2cc(-c3ccc(OC(F)(F)F)cc3)ccc2sc1=O [Example 40, {[4-Hydroxy-2-oxo-6-(4-trifluoromethoxy-phenyl)-2H-thiochromene-3-carbonyl]-amino}-acetic acid] | 94.8 | 
15 | C[C@H](NC(=O)c1c(O)c2cc(Br)ccc2sc1=O)C(=O)O [Example 28, 2-(S)-[(6-Bromo-4-hydroxy-2-oxo-2H-thiochromene-3-carbonyl)-amino]-propionic acid] |  | inhibition at 67 µM: 98%
16 | O=C(O)CNC(=O)c1c(O)c2cc(-c3ccccc3C(F)(F)F)ccc2sc1=O [Example 34, {[4-Hydroxy-2-oxo-6-(2-trifluoromethyl-phenyl)-2H-thiochromene-3-carbonyl]-amino}-acetic acid] |  | inhibition at 67 µM: 99.8%
17 | O=C(O)CNC(=O)c1c(O)c2cc(-c3cc(C(F)(F)F)cc(C(F)(F)F)c3)ccc2sc1=O [Example 33, {[6-(3,5-Bis-trifluoromethyl-phenyl)-4-hydroxy-2-oxo-2H-thiochromene-3-carbonyl]-amino}-acetic acid] |  | inhibition at 67 µM: 99.4%
18 | COc1cc2sc(=O)c(C(=O)NCC(=O)O)c(O)c2cc1OC [Example 2, [(4-Hydroxy-6,7-dimethoxy-2-oxo-2H-thiochromene-3-carbonyl)-amino]-acetic acid] |  | inhibition at 200 µM: 99.4%
19 | O=C(O)CNC(=O)c1c(O)c2cc(Cl)cc(-c3cccnc3)c2sc1=O [Example 46, [(6-Chloro-4-hydroxy-2-oxo-8-pyridin-3-yl-2H-thiochromene-3-carbonyl)-amino]-acetic acid] | 100 | 
20 | Cc1ccc2c(O)c(C(=O)NCC(=O)O)c(=O)sc2c1 [Example 6, [(4-Hydroxy-7-methyl-2-oxo-2H-thiochromene-3-carbonyl)-amino]-acetic acid] |  | inhibition at 12.5 µM: 94.5%
21 | O=C(O)CNC(=O)c1c(O)c2cc(OCC3CCCCC3)ccc2sc1=O [Example 63, [(6-Cyclohexylmethoxy-4-hydroxy-2-oxo-2H-thiochromene-3-carbonyl)-amino]-acetic acid] | 98.9 | 
22 | O=C(O)CNC(=O)c1c(O)c2ccc(-c3cccc(F)c3)cc2sc1=O [Example 30, {[7-(3-Fluoro-phenyl)-4-hydroxy-2-oxo-2H-thiochromene-3-carbonyl]-amino}-acetic acid] |  | inhibition at 67 µM: 99.1%
23 | O=C(O)CNC(=O)c1c(O)c2cccc(-c3ccccc3)c2sc1=O [Example 51, [(4-Hydroxy-2-oxo-8-phenyl-2H-thiochromene-3-carbonyl)-amino]-acetic acid] | 98.8 | 
24 | CCCCCCOc1ccc2sc(=O)c(C(=O)NCC(=O)O)c(O)c2c1 [Example 64, [(6-Hexyloxy-4-hydroxy-2-oxo-2H-thiochromene-3-carbonyl)-amino]-acetic acid] |  | inhibition at 200 µM: 100%
25 | Cn1nc(C(F)(F)F)cc1-c1cc(Cl)cc2c(O)c(C(=O)NCC(=O)O)c(=O)sc12 [Example 45, {[6-Chloro-4-hydroxy-8-(2-methyl-5-trifluoromethyl-2H-pyrazol-3-yl)-2-oxo-2H-thiochromene-3-carbonyl]-amino}-acetic acid] | 100 | 

Second part, led by results:

Row | inhibition at 50 µM [%] | SMILES | further results
26 | 97.5 | Cc1cccc2c(O)c(C(=O)NCC(=O)O)c(=O)sc12 [Example 23, [(4-Hydroxy-8-methyl-2-oxo-2H-thiochromene-3-carbonyl)-amino]-acetic acid] | 
27 | 96.5 | O=C(O)CNC(=O)c1c(O)c2ccc(Cl)cc2sc1=O [Example 60, [(7-Chloro-4-hydroxy-2-oxo-2H-thiochromene-3-carbonyl)-amino]-acetic acid] | 
28 | 92.8 | O=C(O)CNC(=O)c1c(O)c2ccc(-c3ccc(F)c(Cl)c3)cc2sc1=O [Example 17, {[7-(3-Chloro-4-fluoro-phenyl)-4-hydroxy-2-oxo-2H-thiochromene-3-carbonyl]-amino}-acetic acid] | 
29 | 95.6 | C[C@H](NC(=O)c1c(O)c2cc(Cl)ccc2sc1=O)C(=O)O [Example 59, 2-(S)-[(6-Chloro-4-hydroxy-2-oxo-2H-thiochromene-3-carbonyl)-amino]-propionic acid] | 
30 | 97.5 | COc1cccc(-c2ccc3c(O)c(C(=O)NCC(=O)O)c(=O)sc3c2)c1 [Example 8, {[4-Hydroxy-7-(3-methoxy-phenyl)-2-oxo-2H-thiochromene-3-carbonyl]-amino}-acetic acid] | 
31 | 96.7 | O=C(O)CNC(=O)c1c(O)c2ccc(-c3cc(Cl)cc(Cl)c3)cc2sc1=O [Example 10, {[7-(3,5-Dichloro-phenyl)-4-hydroxy-2-oxo-2H-thiochromene-3-carbonyl]-amino}-acetic acid] | 
32 | 96.8 | O=C(O)CNC(=O)c1c(O)c2ccc(-c3ccccc3)cc2sc1=O [Example 12, [(4-Hydroxy-2-oxo-7-phenyl-2H-thiochromene-3-carbonyl)-amino]-acetic acid] | 
33 | 97.3 | COc1ccc2c(O)c(C(=O)NCC(=O)O)c(=O)sc2c1 [Example 1, [(4-Hydroxy-7-methoxy-2-oxo-2H-thiochromene-3-carbonyl)-amino]-acetic acid] | 
34 | 92.1 | Cc1ccc(-c2ccc3c(O)c(C(=O)NCC(=O)O)c(=O)sc3c2)cc1 [Example 19, [(4-Hydroxy-2-oxo-7-p-tolyl-2H-thiochromene-3-carbonyl)-amino]-acetic acid] | 
35 | 95.6 | Cc1cc(Cl)cc2c(O)c(C(=O)NCC(=O)O)c(=O)sc12 [Example 22, [(6-Chloro-4-hydroxy-8-methyl-2-oxo-2H-thiochromene-3-carbonyl)-amino]-acetic acid] | 

Reference: US9149476B2, “Thiochromene derivatives as HIF hydroxylase inhibitors” (FibroGen, Inc., priority 2008, dated 2015)
